The source of these data is ChEMBL document CHEMBL1201862, “PubChem BioAssay data set” (2004).

Among the test systems are A498; A549; CCRF-CEM; DU-145; Hs-578T; MDA-MB-435; MOLT-4; Malme-3M; NCI-H23; OVCAR-3; OVCAR-5; RPMI-8226; SF-295; SF-539; SK-MEL-28; SK-OV-3; SW-620; UACC-62; UO-31.
What all share (assay): DTP human tumour cell line panel, 48 h

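Following 48 hours of exposure in 96-well plates, responses at five concentrations were used to interpolate endpoints linearly. Abbreviation: GI50, concentration required for 50% inhibition of growth.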 Calls of active or inactive are those of the source. No stated cut-off is given here; in the data, active = GI50 up to about 1.1 µM and inactive = higher.

For `COc1cc(I)c2c3c1OC1C34CCN(C)C(C2)C4=CC(I)C1(OC)OC` (stereo not given), the GI50 with A498 was 32.2 µM (inactive); in the experiment on A549, 29.6 µM (inactive); in the experiment on CCRF-CEM it was 5.36 µM (inactive); in the experiment on DU-145, 18.7 µM (inactive); in the experiment on Hs-578T it was 53.2 µM (inactive); in the experiment on MDA-MB-435, 13.2 µM (inactive). In addition, the GI50 in the experiment on MOLT-4 is 16.2 µM (inactive); in the experiment with Malme-3M, 20.7 µM (inactive); with NCI-H23, 24.5 µM (inactive); with OVCAR-3, 19.2 µM (inactive); in the experiment on OVCAR-5 it was 24.2 µM (inactive); with RPMI-8226 it was 19.6 µM (inactive). Also, the GI50 in the experiment with SF-295 is 46.2 µM (inactive); in the experiment with SF-539, 18.1 µM (inactive); in the experiment with SK-MEL-28, 18.2 µM (inactive); in the experiment with SK-OV-3 it was 24.8 µM (inactive); in the experiment with SW-620, 19 µM (inactive); in the experiment on UACC-62 it was 19.2 µM (inactive). The GI50 in the experiment on UO-31 is 18.4 µM (inactive).
For `COc1ccccc1C[C@@H]1OC2(C=CC(=O)C=C2)O[C@H]1Cc1ccccc1OC`, the GI50 in the experiment with A498 is 16.9 µM (inactive); in the experiment with A549, 21.7 µM (inactive); with CCRF-CEM it was 3.33 µM (inactive); with DU-145 it was 18.4 µM (inactive); in the experiment with Hs-578T, 10 µM (inactive); with MDA-MB-435, 14.3 µM (inactive). The GI50 was 2.04 µM (inactive) in the experiment with MOLT-4; 9.71 µM (inactive) with Malme-3M; 8.75 µM (inactive) with NCI-H23; 8.09 µM (inactive) in the experiment with OVCAR-3; 8.43 µM (inactive) in the experiment on OVCAR-5; 1.71 µM (inactive) in the experiment with RPMI-8226. Besides, the GI50 with SF-295 was 11 µM (inactive); in the experiment on SF-539, 8.75 µM (inactive); in the experiment with SK-MEL-28, 8.81 µM (inactive); in the experiment on SK-OV-3 it was 11.4 µM (inactive); in the experiment on SW-620, 1.79 µM (inactive); in the experiment on UACC-62, 10.3 µM (inactive). Besides, the GI50 in the experiment with UO-31 is 6.35 µM (inactive).
For the molecule `COc1cc(/C=C\C(=O)O)ccc1OCc1ccccc1`, the GI50 with A498 was > 100 µM (inactive); with A549, > 100 µM (inactive); with CCRF-CEM it was > 100 µM (inactive); in the experiment on DU-145, > 100 µM (inactive); in the experiment with Hs-578T, 49.3 µM (inactive); with MDA-MB-435, > 100 µM (inactive). In addition, the GI50 is > 100 µM (inactive) with MOLT-4; 0.053 µM (active) in the experiment on Malme-3M; > 100 µM (inactive) in the experiment with NCI-H23; > 100 µM (inactive) in the experiment with OVCAR-3; > 100 µM (inactive) in the experiment on OVCAR-5; > 100 µM (inactive) in the experiment on RPMI-8226. Moreover, the GI50 in the experiment on SF-295, in the experiment with SF-539, with SK-MEL-28, in the experiment with SK-OV-3, with SW-620 and in the experiment with UACC-62 was > 100 µM (inactive) each time. Also, the GI50 with UO-31 was > 100 µM (inactive).
With `CC(=O)OC1CC2C(=O)CC1(C)C2(C)C` (stereo not given), the GI50 in the experiment on A498, in the experiment with A549, with CCRF-CEM, in the experiment with DU-145, in the experiment with Hs-578T and with MDA-MB-435 was > 100 µM (inactive) each time. Further, the GI50 in the experiment with MOLT-4, with Malme-3M, with NCI-H23, with OVCAR-3, in the experiment on OVCAR-5 and in the experiment on RPMI-8226 was > 100 µM (inactive) each time. The GI50 was > 100 µM (inactive) in the experiment with SF-295; > 100 µM (inactive) in the experiment with SF-539; > 100 µM (inactive) in the experiment with SK-MEL-28; > 100 µM (inactive) in the experiment with SK-OV-3; > 83.8 µM (inactive) in the experiment on SW-620; > 100 µM (inactive) with UACC-62. The GI50 in the experiment on UO-31 is > 100 µM (inactive).
On to `[N-]=[N+]=NC1(c2ccccc2)C(=O)c2cccc3c4ccccc4n(c23)C1=O` (stereo not given), for which the GI50 in the experiment on A498 is > 100 µM (inactive); in the experiment on A549 it was 76.2 µM (inactive); in the experiment on CCRF-CEM, 64.3 µM (inactive); in the experiment on DU-145, > 100 µM (inactive); in the experiment on Hs-578T, > 100 µM (inactive); in the experiment on MDA-MB-435, 27.9 µM (inactive). The GI50 was 98.4 µM (inactive) in the experiment on MOLT-4; > 100 µM (inactive) in the experiment on Malme-3M; 52.2 µM (inactive) in the experiment with NCI-H23; 46.3 µM (inactive) with OVCAR-3; > 100 µM (inactive) in the experiment with OVCAR-5; 45.3 µM (inactive) in the experiment on RPMI-8226. In addition, the GI50 was 57.8 µM (inactive) with SF-295; > 100 µM (inactive) with SF-539; > 100 µM (inactive) in the experiment on SK-MEL-28; > 100 µM (inactive) in the experiment with SK-OV-3; > 100 µM (inactive) in the experiment on SW-620; 50 µM (inactive) in the experiment on UACC-62. In addition, the GI50 in the experiment on UO-31 was > 100 µM (inactive).
As to `Nc1ccc(-c2nc3cc(F)ccc3s2)cc1`, the GI50 is 33.5 µM (inactive) in the experiment on A498; 87.7 µM (inactive) in the experiment on A549; > 45.6 µM (inactive) in the experiment with CCRF-CEM; 30.5 µM (inactive) with DU-145; 37.7 µM (inactive) in the experiment on Hs-578T; > 100 µM (inactive) with MDA-MB-435. Also, the GI50 with MOLT-4 is > 82.2 µM (inactive); with Malme-3M, > 100 µM (inactive); in the experiment with NCI-H23 it was 1.43 µM (inactive); with OVCAR-3, > 90.2 µM (inactive); in the experiment with OVCAR-5, 26.4 µM (inactive); with RPMI-8226 it was > 100 µM (inactive). Moreover, the GI50 in the experiment on SF-295 is 25.5 µM (inactive); in the experiment with SF-539, > 66.1 µM (inactive); in the experiment with SK-MEL-28 it was > 100 µM (inactive); in the experiment with SK-OV-3, > 94.2 µM (inactive); in the experiment with SW-620, > 100 µM (inactive); with UACC-62 it was 28.6 µM (inactive). In the experiment on UO-31, the GI50 is > 60 µM (inactive).
On to `COc1c2c(cc3c1C(O)N1CC[C@]34[C@H]3O[C@H]3[C@H](OC)C[C@@H]14)OCO2` (stereo not given in full), for which the GI50 was 50.5 µM (inactive) with A498; > 100 µM (inactive) in the experiment with A549; 2.38 µM (inactive) in the experiment with CCRF-CEM; > 100 µM (inactive) with DU-145; > 100 µM (inactive) with Hs-578T; 31.6 µM (inactive) in the experiment on MDA-MB-435. Moreover, the GI50 in the experiment on MOLT-4 was > 100 µM (inactive); in the experiment with Malme-3M it was 71.1 µM (inactive); in the experiment with NCI-H23 it was > 100 µM (inactive); in the experiment on OVCAR-3, 16.4 µM (inactive); in the experiment on OVCAR-5, > 100 µM (inactive); with RPMI-8226 it was 82 µM (inactive). The GI50 is 27.2 µM (inactive) in the experiment with SF-295; > 100 µM (inactive) in the experiment with SF-539; > 100 µM (inactive) in the experiment with SK-MEL-28; 24.2 µM (inactive) with SK-OV-3; 54.7 µM (inactive) with SW-620; 39.3 µM (inactive) with UACC-62. Besides, the GI50 with UO-31 is > 100 µM (inactive).
Take `CCc1nc(Cl)nc(Cl)c1Cl`: the GI50 is 4.94 µM (inactive) in the experiment on A498; 2.63 µM (inactive) with A549; 0.177 µM (active) with CCRF-CEM; 9.06 µM (inactive) in the experiment on DU-145; 2.6 µM (inactive) in the experiment on Hs-578T; 1.06 µM (active) in the experiment with MDA-MB-435. The GI50 is 0.332 µM (active) in the experiment with MOLT-4; 0.445 µM (active) in the experiment with Malme-3M; 1.08 µM (active) in the experiment with NCI-H23; 0.535 µM (active) in the experiment with OVCAR-3; 0.7 µM (active) in the experiment with OVCAR-5; 0.0116 µM (active) with RPMI-8226. Further, the GI50 is 8.57 µM (inactive) in the experiment with SF-295; 3.36 µM (inactive) in the experiment with SF-539; 4.95 µM (inactive) in the experiment with SK-MEL-28; 6.41 µM (inactive) with SK-OV-3; 0.467 µM (active) with SW-620; 6.44 µM (inactive) with UACC-62. The GI50 with UO-31 is 0.276 µM (active).
Consider `CC1(c2ccc(Cl)cc2)C=C(c2ccc(Cl)cc2)C(C#N)=C(C(C#N)C#N)N1.CNC` (stereo not given), for which the GI50 is 17.9 µM (inactive) with A498; 19.2 µM (inactive) in the experiment on A549; 5.02 µM (inactive) with CCRF-CEM; 16.1 µM (inactive) with DU-145; 9.82 µM (inactive) with Hs-578T; 17.5 µM (inactive) in the experiment with MDA-MB-435. Moreover, the GI50 in the experiment on MOLT-4 is 13.6 µM (inactive); in the experiment with Malme-3M, 14.1 µM (inactive); in the experiment on NCI-H23 it was 15.3 µM (inactive); in the experiment on OVCAR-3 it was 8.75 µM (inactive); in the experiment with OVCAR-5 it was 18.1 µM (inactive); in the experiment on RPMI-8226, 34.4 µM (inactive). The GI50 in the experiment with SF-295 is 17.6 µM (inactive); with SF-539, 19.5 µM (inactive); in the experiment with SK-MEL-28 it was 24.1 µM (inactive); in the experiment with SK-OV-3 it was 17.1 µM (inactive); in the experiment with SW-620, 12.7 µM (inactive); with UACC-62, 14.1 µM (inactive). Moreover, the GI50 in the experiment on UO-31 is 16.4 µM (inactive).
As to `O=C1C(Nc2ccccc2)=CC2=NCCc3n[nH]c1c32`, the GI50 is 61.4 µM (inactive) in the experiment with A498; 84.9 µM (inactive) with A549; 22.3 µM (inactive) with CCRF-CEM; 64 µM (inactive) in the experiment on DU-145; 42.2 µM (inactive) with Hs-578T; 17.2 µM (inactive) in the experiment with MDA-MB-435. In addition, the GI50 was 30.1 µM (inactive) in the experiment on MOLT-4; 14.4 µM (inactive) in the experiment with Malme-3M; 33.9 µM (inactive) with NCI-H23; 25 µM (inactive) in the experiment with OVCAR-3; > 100 µM (inactive) in the experiment on OVCAR-5; 26.4 µM (inactive) in the experiment with RPMI-8226. The GI50 in the experiment with SF-295 is 38.6 µM (inactive); in the experiment on SF-539, 35.7 µM (inactive); in the experiment on SK-MEL-28, 68.1 µM (inactive); in the experiment with SK-OV-3, > 100 µM (inactive); with SW-620, 34.4 µM (inactive); in the experiment on UACC-62, 21.5 µM (inactive). Further, the GI50 in the experiment with UO-31 was 55.8 µM (inactive).
